Results on 9 compounds are retold here after ChEMBL document CHEMBL1201862, “PubChem BioAssay data set” (2004).

The test system of one assay is Danio rerio. The experiment in a line: In Vivo Angiogenesis Dose-Response Confirmation. [Related pubchem assays: 732 (Assay preceding this confirmatory assay.)]. The assay is classed as functional, organism-based.
For assay [1], the system named is BJ. The experiment in a line: cells. It is filed as functional, cell-based. Particulars: Homo sapiens.
The subject of assay [2] is BJ. The experiment in a line: BJ-TERT-LT-ST fibroblast viability loss – cell-based, RAS-independent, luminescence, dose response (AID 1935).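 Further: BJ fibroblasts immortalized with TERT plus LT and ST oncogenes.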 To be noted: Homo sapiens. The assay is classed as functional.
Assay [3] is described as follows: Luminescent dose response cell-based high throughput screening assay for inhibitors of the Janus kinase 2 mutant JAK2V617F. [Related pubchem assays: 1446 (Primary screen.), 1521 (Confirmation assay.), 1486 (Counter screen.)]. The assay is classed as functional. Background: Counterscreens check selectivity or assay interference.
Assay [4] can be described thus: DRD fibroblast viability loss – cell-based, non-viral oncogenic, luminescence, dose response (AID 1934). The assay is classed as functional. Particulars: Homo sapiens.
The test system of assay [5] is BJ. The experiment in a line: BJ-TERT fibroblast viability loss – cell-based, RAS-independent, luminescence, dose response (AID 1933). To be noted: Homo sapiens. The assay is classed as functional.
The test system of assay [6] is BJ. The experiment in a line: growth inhibition of engineered Ras-driven BJ cells – cell-based, alamar blue fluorescence, cherrypicked samples, dose response (AID 2631).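 Further: confirmatory dose-response assay in RAS-dependent BJ fibroblasts engineered with TERT, LT and ST, with cytotoxicity read by fluorescence.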 The assay is classed as functional. Particulars: Homo sapiens. For orientation: Resazurin is reduced to fluorescent resorufin, in cell work by metabolically active cells.
The next assay deals with NADPH oxidase 1 (Homo sapiens, UniProt Q9Y5S8). It is filed as functional, cell-based.
The target of assay [7] is Aryl hydrocarbon receptor (Homo sapiens, UniProt P35869). The experiment in a line: Luminescence-based cell-based high throughput dose response assay for activators of the Aryl Hydrocarbon Receptor (AHR). [Related pubchem assays: 2796 (Primary screen (AHR activators in singlicate)), 2845 (Confirmation screen (AHR activators in triplicate)), 434939 (Counterscreen (PXR activators in triplicate)), 2804 (Summary (AHR activators))]. It is filed as ADME.

For another assay, the target named is Phosphomannomutase 2 (Homo sapiens, UniProt O15305). The experiment in a line: Counter screen SAR assay for PMM2 inhibitors via a fluorescence intensity assay. [Related pubchem assays (depositor defined):AID1545, AID1574].
Assay [8] deals with Mitogen-activated protein kinase 10 (Homo sapiens, UniProt P53779). The experiment in a line: Dose response biochemical screening assay for inhibitors of c-Jun N-Terminal Kinase 3 (JNK3). [Related pubchem assays: 746 ].
The target of assay [9] is Peroxisome proliferator-activated receptor gamma/Nuclear receptor coactivator 2 (Homo sapiens, UniProt P37231). The experiment in a line: TR-FRET dose response biochemical High Throughput Screening assay for agonists of the steroid receptor coactivator 2 (SRC-2) recruitment by the peroxisome proliferator-activated receptor gamma (PPAR gamma): non-selective agonists. [Related pubchem assays: 1297, 1032 ]. It is filed as functional. On the technique in general: In TR-FRET formats the signal depends on donor and acceptor labels being close together.

The target of assay [10] is Peroxisome proliferator-activated receptor gamma/Nuclear receptor coactivator 1 (Homo sapiens, UniProt P37231). The experiment in a line: TR-FRET dose response biochemical High Throughput Screening assay for agonists of the steroid receptor coactivator 1 (SRC-1) recruitment by the peroxisome proliferator-activated receptor gamma (PPAR gamma): non-selective agonists. [Related pubchem assays (depositor defined):AID1300, AID1808, AID504735, AID631]. The assay is classed as protein assay.

Assay [11] deals with T1, Mannose-6-phosphate isomerase (Homo sapiens, UniProt P34949).
T1 sequence (P34949 whole entry): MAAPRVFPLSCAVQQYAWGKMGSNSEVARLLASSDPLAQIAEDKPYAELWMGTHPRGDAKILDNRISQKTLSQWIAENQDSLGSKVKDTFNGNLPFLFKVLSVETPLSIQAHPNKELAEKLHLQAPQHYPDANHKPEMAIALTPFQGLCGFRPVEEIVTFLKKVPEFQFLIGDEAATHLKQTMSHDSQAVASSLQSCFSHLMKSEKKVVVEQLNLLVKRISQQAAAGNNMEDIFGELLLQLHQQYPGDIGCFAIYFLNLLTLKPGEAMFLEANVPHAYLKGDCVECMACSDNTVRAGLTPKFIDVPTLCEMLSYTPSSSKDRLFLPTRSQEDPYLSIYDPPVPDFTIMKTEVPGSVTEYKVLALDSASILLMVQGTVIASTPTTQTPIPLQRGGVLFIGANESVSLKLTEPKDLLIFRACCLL
The experiment in a line: phosphomannose isomerase inhibition – biochemical, fluorescence intensity, confirmation (AID 1535).

Assay [12] addresses Peroxisome proliferator-activated receptor gamma/Nuclear receptor coactivator 3 (Homo sapiens, UniProt P37231). The experiment in a line: TR-FRET dose response biochemical High Throughput Screening assay for agonists of the steroid receptor coactivator 3 (SRC-3) recruitment by the peroxisome proliferator-activated receptor gamma (PPAR gamma): non-selective agonists. [Related pubchem assays: 1301 (Confirmation screen.), 1048 (Primary screen.)]. The assay is classed as functional.

Assay [13] deals with T2, Estrogen receptor beta (Homo sapiens, UniProt Q92731).
Assay [14] has as its target T2, Estrogen receptor beta. The experiment in a line: blockers of SRC-3 recruitment to ERβ – biochemical, ELISA, streptavidin-HRP readout, orthogonal assay, confirmation (AID 1060).
The target of another assay is T3, Estrogen receptor (Homo sapiens, UniProt P03372).
T3 sequence (P03372 whole entry): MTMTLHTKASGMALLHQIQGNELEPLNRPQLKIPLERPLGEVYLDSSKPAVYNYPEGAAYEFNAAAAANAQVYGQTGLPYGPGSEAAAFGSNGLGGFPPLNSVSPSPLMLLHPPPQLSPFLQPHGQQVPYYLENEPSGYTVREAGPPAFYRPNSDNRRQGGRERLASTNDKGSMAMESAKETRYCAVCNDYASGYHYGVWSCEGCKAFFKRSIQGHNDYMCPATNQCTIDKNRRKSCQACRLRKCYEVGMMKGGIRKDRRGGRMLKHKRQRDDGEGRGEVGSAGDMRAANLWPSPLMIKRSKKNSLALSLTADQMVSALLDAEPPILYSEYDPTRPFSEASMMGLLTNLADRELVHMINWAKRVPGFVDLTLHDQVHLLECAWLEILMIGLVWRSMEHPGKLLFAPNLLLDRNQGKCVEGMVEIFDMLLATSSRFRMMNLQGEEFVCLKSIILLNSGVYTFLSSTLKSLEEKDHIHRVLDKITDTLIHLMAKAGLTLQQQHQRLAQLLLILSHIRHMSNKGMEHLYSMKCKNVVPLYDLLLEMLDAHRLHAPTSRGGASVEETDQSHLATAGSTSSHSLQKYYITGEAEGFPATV

Another assay addresses T4, Protein skinhead-1 (Caenorhabditis elegans, UniProt P34707).
T4 sequence (P34707 whole entry): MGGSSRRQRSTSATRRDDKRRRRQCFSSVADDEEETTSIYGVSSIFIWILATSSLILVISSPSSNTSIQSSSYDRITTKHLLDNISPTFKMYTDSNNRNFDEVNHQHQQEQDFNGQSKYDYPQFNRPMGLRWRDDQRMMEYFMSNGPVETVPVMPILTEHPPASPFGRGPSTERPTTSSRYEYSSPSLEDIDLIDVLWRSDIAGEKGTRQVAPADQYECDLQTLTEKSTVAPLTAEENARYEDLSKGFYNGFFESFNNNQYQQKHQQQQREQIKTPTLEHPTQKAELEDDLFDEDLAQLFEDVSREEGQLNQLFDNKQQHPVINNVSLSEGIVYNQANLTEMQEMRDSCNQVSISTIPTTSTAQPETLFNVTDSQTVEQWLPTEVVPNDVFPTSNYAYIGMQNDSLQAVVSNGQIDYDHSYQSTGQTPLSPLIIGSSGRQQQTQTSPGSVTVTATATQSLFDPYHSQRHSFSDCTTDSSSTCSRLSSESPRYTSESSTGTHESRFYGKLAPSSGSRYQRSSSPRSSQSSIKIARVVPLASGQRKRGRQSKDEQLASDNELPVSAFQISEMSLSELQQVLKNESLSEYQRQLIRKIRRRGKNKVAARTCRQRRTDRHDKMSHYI
It is filed as functional.

The nature of assay [15]: Luminescence Cell-Based Dose Confirmation HTS to Identify Inhibitors of Polyadenylation. It is filed as functional.
A short description of assay [16]: acridine orange displacement from DNA – biochemical, fluorescence polarization, cherry-pick, artefact control for RAD54 inhibitor project, dose response (AID 651673). It is filed as functional.
Assay [17] addresses DNA (cytosine-5)-methyltransferase 1 (Homo sapiens, UniProt P26358). The experiment in a line: inhibition of DNA methylation by DNMT1 – biochemical, fluorescent molecular beacon, confirmation (AID 602386). The assay is classed as functional.
For assay [18], the target named is T5, DNA repair and recombination protein RAD54-like (Homo sapiens, UniProt Q92698).
T5 sequence (Q92698 whole entry): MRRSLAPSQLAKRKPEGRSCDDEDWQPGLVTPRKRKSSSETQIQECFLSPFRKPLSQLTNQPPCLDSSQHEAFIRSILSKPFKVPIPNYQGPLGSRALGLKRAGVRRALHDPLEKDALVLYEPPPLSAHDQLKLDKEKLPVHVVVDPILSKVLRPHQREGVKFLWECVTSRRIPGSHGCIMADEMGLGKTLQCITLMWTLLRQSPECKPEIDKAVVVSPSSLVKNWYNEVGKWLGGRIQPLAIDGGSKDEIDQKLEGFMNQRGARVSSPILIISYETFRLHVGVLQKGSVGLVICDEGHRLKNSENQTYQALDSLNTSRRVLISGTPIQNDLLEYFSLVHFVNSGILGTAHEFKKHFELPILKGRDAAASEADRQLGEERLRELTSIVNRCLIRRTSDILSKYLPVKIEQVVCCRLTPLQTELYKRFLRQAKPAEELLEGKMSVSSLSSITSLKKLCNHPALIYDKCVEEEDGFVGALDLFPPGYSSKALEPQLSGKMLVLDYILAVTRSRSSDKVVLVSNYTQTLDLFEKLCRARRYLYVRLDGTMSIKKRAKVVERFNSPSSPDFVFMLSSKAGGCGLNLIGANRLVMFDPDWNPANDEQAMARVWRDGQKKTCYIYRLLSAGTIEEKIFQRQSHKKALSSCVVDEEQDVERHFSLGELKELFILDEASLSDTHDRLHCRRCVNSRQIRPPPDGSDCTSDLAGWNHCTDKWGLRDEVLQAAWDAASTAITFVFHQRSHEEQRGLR
The experiment in a line: RAD54 Holliday junction migration blockers – biochemical, fluorescence, cherry-picked samples, dose series, confirmation (AID 651657). It is filed as functional.

Assay [19] addresses T6, DNA repair protein RAD52 homolog (Homo sapiens, UniProt P43351).
T6 sequence (P43351 whole entry): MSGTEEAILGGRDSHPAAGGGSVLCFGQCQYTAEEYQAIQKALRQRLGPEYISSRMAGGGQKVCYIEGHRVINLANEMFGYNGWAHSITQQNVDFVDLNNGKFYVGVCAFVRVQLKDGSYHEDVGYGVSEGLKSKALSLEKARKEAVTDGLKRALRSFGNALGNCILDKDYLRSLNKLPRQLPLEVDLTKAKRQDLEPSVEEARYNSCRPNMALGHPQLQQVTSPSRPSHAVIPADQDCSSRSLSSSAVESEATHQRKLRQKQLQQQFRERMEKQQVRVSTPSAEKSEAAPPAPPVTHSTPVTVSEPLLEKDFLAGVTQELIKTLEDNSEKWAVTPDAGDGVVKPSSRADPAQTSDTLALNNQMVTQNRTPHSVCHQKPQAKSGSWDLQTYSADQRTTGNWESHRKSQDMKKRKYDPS
It is filed as functional, biochemical.

Assay [20] addresses T1, Mannose-6-phosphate isomerase. The experiment in a line: MPI enzyme activity inhibition – biochemical, fluorescence intensity, coupled assay, primary screen (AID 1209).
Assay [21] concerns the target Photoreceptor-specific nuclear receptor (Homo sapiens, UniProt Q9Y5X4). The experiment in a line: ligands suppressing NR2E3 nuclear receptor activity – biochemical, TR-FRET, dose response (AID 463256). It is filed as functional.
The target in assay [22] is Peroxisome proliferator-activated receptor gamma/Nuclear receptor corepressor 2 (Homo sapiens, UniProt P37231+Q9Y618). The experiment in a line: Counterscreen for NR2E3 inverse agonists: TR-FRET-based biochemical high throughput dose response assay to identify inverse agonists of the interaction between peroxisome proliferator-activated receptor gamma (PPARg) and nuclear receptor co-repressor 2 (NCOR2). It is filed as functional.

The source made the active and inactive calls.

T2 sequence (Q92731 whole entry): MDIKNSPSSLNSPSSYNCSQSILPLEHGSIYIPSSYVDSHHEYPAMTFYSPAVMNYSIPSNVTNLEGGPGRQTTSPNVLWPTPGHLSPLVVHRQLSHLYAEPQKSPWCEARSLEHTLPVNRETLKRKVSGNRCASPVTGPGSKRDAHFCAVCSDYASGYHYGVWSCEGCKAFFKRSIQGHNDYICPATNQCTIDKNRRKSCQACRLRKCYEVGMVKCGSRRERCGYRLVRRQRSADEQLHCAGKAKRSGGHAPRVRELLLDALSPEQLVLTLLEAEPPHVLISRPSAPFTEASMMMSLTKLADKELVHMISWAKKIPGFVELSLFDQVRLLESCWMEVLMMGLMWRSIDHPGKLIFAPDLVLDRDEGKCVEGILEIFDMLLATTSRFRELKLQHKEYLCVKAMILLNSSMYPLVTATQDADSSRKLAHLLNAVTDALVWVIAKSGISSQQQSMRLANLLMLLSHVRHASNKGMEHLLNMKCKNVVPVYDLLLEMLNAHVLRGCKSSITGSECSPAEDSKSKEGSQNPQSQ
Photoreceptor-specific nuclear receptor, sequence (Q9Y5X4 whole entry): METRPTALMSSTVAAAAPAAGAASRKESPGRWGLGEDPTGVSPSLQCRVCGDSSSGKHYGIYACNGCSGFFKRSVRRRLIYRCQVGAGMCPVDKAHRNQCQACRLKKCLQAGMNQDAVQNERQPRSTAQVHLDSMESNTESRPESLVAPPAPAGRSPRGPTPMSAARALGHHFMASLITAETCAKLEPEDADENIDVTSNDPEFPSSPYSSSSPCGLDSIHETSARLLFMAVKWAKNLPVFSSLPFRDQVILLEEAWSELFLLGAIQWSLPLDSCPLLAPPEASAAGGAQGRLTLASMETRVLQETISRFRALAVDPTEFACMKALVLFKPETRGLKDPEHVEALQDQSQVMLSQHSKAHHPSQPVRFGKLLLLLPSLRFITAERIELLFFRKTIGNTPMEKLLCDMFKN
Mitogen-activated protein kinase 10, sequence (P53779 whole entry): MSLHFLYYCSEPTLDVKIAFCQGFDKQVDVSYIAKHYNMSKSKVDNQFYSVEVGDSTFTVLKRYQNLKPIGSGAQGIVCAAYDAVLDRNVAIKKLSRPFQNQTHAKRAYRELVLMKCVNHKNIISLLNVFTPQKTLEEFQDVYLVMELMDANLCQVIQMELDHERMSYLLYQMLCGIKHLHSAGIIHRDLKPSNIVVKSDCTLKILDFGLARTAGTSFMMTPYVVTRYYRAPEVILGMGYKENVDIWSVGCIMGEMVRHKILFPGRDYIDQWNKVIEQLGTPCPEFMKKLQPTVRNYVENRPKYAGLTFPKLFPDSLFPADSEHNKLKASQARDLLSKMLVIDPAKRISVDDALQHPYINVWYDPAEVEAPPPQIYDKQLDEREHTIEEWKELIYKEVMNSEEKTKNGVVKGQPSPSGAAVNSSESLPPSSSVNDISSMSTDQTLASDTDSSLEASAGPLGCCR
Phosphomannomutase 2, sequence (O15305 whole entry): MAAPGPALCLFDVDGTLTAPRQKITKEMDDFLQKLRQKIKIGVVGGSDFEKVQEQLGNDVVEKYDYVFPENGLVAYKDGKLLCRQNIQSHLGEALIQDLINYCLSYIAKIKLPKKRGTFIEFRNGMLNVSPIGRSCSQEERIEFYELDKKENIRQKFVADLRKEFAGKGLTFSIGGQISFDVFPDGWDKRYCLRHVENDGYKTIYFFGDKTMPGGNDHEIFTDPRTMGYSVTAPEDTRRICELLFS
DNA (cytosine-5)-methyltransferase 1, sequence (P26358 whole entry): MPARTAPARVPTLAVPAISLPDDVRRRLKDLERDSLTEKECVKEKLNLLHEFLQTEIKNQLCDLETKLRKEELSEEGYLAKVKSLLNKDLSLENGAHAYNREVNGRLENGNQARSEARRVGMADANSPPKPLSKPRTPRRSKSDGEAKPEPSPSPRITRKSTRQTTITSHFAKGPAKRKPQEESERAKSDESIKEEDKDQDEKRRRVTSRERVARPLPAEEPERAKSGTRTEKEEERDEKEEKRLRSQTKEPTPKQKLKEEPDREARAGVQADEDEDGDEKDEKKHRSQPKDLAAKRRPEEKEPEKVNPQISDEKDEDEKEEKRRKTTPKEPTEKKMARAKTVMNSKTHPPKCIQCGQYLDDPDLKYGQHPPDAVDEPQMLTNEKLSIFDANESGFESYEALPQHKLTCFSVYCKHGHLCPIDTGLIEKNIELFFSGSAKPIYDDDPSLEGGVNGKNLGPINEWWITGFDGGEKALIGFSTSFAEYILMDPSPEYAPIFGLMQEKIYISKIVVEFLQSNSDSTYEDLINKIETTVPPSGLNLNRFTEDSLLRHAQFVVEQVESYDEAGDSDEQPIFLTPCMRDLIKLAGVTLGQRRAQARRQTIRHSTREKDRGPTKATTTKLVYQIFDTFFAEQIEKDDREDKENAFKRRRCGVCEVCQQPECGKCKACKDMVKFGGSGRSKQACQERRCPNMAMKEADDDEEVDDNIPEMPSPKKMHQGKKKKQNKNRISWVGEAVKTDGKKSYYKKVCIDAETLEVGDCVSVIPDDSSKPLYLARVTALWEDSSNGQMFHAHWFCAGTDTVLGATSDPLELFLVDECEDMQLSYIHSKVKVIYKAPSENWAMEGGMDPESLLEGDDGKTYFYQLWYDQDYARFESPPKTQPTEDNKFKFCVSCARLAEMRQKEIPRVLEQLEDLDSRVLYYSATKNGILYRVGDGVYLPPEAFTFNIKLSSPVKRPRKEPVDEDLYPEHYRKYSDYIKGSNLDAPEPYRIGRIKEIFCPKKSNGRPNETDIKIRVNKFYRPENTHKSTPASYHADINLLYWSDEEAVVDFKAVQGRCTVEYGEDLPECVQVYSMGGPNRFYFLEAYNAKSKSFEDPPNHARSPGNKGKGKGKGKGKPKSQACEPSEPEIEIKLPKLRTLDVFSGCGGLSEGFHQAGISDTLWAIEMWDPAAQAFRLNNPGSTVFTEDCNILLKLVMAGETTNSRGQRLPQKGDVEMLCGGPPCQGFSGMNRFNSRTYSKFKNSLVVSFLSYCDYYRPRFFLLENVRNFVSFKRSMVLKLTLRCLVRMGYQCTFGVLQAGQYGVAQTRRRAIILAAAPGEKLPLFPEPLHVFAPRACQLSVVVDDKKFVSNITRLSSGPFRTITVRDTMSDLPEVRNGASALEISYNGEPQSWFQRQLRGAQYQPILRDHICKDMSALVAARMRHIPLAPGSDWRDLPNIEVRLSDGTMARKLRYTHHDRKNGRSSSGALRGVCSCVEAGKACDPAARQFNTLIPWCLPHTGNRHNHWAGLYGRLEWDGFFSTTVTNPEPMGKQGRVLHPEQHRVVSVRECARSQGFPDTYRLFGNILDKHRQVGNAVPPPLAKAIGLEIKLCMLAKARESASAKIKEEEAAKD
Aryl hydrocarbon receptor, sequence (P35869 whole entry): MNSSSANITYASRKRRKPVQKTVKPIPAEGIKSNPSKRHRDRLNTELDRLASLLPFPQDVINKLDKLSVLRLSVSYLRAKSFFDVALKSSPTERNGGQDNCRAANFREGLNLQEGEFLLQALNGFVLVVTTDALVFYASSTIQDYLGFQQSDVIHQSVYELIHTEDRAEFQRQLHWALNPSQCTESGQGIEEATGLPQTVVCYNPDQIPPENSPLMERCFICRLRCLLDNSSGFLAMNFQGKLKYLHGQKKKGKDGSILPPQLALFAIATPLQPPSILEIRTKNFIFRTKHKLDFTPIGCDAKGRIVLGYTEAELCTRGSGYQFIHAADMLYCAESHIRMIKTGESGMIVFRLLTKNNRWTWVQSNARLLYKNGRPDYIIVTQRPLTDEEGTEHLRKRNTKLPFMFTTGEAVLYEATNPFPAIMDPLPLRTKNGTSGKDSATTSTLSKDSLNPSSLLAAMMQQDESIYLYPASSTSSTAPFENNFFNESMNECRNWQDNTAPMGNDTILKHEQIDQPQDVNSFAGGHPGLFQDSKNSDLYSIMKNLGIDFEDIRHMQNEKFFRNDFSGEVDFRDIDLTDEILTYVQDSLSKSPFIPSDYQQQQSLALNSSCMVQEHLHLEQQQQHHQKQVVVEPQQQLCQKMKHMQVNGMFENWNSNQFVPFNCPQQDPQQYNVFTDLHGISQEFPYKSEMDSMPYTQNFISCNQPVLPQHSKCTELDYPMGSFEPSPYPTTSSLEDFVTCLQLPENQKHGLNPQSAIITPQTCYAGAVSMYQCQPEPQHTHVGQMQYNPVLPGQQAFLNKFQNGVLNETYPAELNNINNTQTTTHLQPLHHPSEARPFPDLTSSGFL
NADPH oxidase 1, sequence (Q9Y5S8 whole entry): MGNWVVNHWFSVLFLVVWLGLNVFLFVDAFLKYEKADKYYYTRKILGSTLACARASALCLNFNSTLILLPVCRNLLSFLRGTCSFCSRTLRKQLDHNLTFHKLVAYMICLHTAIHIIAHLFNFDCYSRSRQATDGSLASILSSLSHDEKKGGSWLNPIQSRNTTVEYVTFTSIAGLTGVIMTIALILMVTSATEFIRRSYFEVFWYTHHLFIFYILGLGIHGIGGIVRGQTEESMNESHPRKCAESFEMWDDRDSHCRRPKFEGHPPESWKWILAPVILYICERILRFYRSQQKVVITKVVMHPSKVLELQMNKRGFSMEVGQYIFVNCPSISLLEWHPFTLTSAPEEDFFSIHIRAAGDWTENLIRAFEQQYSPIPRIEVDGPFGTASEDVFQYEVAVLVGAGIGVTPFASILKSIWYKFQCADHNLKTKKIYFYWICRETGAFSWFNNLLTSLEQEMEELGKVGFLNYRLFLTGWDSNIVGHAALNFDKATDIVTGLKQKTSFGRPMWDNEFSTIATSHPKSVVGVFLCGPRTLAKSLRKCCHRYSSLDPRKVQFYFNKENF

In general, IC50 refers to the concentration needed to halve the response being measured. With `O=C1C(c2c(O)[nH]c3ccc(F)cc23)=Nc2ccccc21`, the IC50 in the assay with Danio rerio is 2.17 µM (active).
By EC50 is commonly meant the concentration giving half of the maximal effect. In the case of `CCOc1ccc(Nc2nc(N)nc(CCl)n2)cc1`, the EC50 was 1.8 µM (active) in the assay on BJ [1]; 10.8 µM (inconclusive) with BJ [2]; 0.694 µM (active) in assay [4]; 0.839 µM (inconclusive) in the assay with BJ [5]; 5.73 µM (active) with BJ [6]. In addition, the IC50 in [3] was 0.597 µM (active).
Consider `O=C(Nc1ccc(OCc2ccccc2)cc1)Nc1ccc(N2CCCCC2)cc1`, for which the IC50 against NADPH oxidase 1 is > 17 µM (not active).
Take `CCOCC(=O)Nc1cccc(-c2nc3cccnc3s2)c1C`: in assay [7], the EC50 is 4.22 µM (active).
Turning to `Sc1nnc(-c2cccc(Br)c2)o1`, the IC50 was > 100 µM (inactive) on Phosphomannomutase 2, > 93.1 µM (not active) in [8] and > 50 µM (inactive) in assay [11]. The EC50 in assay [9] was 3.25 µM (active); in assay [10] it was 7.33 µM (active); in [12], > 79.4 µM (not active).
Turning to `Cc1ccc(-c2csc(NC(=O)c3ccno3)n2)cc1`, the IC50 at Estrogen receptor beta [13] is 3.87 µM (active); against Estrogen receptor beta [14], < 0.023 µM (not active); at Estrogen receptor, 7.19 µM (active); at Protein skinhead-1, > 100 µM (inactive).
Usually AC50 stands for the concentration giving half of the maximal activity seen. In the case of `CN(C)CCc1cc2c(c3c1ccc1ccccc13)OCO2`, in assay [15], the EC50 is given as > 120 µM (not active). Also, the AC50 in assay [16] was 39.9 µM (active); in [18] it was 4.76 µM (active); in assay [19] it was 1.29 µM (active). In addition, in assay [17], the IC50 was > 99 µM (inactive).
For `COc1ccc(NC(=O)C2CC(=O)n3cnnc3S2)cc1` (configuration not stated), in assay [20], the IC50 was > 50 µM (not active).
`Cc1cc(C)c2c(C)c(C(=O)NCc3ccc(S(N)(=O)=O)cc3)oc2c1`: the results for the IC50 in assay [21] and in assay [22] were 4.06 µM (active) and 3.99 µM (active), respectively.
